Source: patent publication US10669240B2, “5-substituted indazole-3-carboxamides and preparation and use thereof” (Samumed, LLC, priority 2014, dated 2020)

Target: DYRK1A (Homo sapiens (Human), UniProt Q13627)
Experiment: DYRK1A activity Tau assay: pSer396 Tau in SH-SY5Y cells by ELISA / western blot
Format: cell-based
Settings: overnight (16-18 h) exposure
Source text: In another example, in vitro assays for DYRK1A biological activity may be used, e.g. regulation of microtubule-associated protein tau (MAPT/Tau) phosphorylation in neuronal cell line such as the human SH-SY5Y neuroblastoma cell line. Assays for DYRK1a-regulated level of phosphorylation can include monitoring levels of basal pSer396 Tau, which can be measured, for example, by serial dilutions of a candidate inhibitor composition using a ten micromolar top concentration and detected by ELISA or Western Blotting. An exemplary assay for DYRK-1a-regulated phosphorylation uses the SH-SY5Y cells cultured in a 96 well plate format for a period of time sufficient to stabilize microtubules and Tau phosphorylation, usually at least 2 days, then treated with a 1/3 serial dilution of compounds overnight and lysed. The cell lysate is resolved by SDS PAGE, then transferred to nitrocellulose and probed with an antibody specific for pSer396 Tau.
In a further example, the activity of a candidate compound can be measured by ELISA by adding the lysate mentioned above onto total Tau-coated plates and detected with a specific pSer396 antibody.

| SMILES | EC50 [nM] |
| --- | --- |
| CC(C)CNC(=O)c1n[nH]c2ccc(-c3cccnc3)cc12 [Compound 1254, N-Isobutyl-5-(pyridin-3-yl)-1H-indazole-3-carboxamide] | 9 |
| CN(C)Cc1ccc(NC(=O)c2n[nH]c3ccc(-c4cccnc4)cc23)cc1 [Compound 1324, N-(4-((Dimethylamino)methyl)phenyl)-5-(pyridin-3-yl)-1H-indazole-3-carboxamide] | 10 |
| CCN1CCC(NC(=O)c2n[nH]c3ccc(-c4cncc5ccccc45)cc23)CC1 [Compound 1292, N-(1-Ethylpiperidin-4-yl)-5-(isoquinolin-4-yl)-1H-indazole-3-carboxamide] | 74 |
| CC(C)(C)CN1CCC(NC(=O)c2n[nH]c3ccc(-c4cncc(F)c4)cc23)CC1 [Compound 1315, 5-(5-Fluoropyridin-3-yl)-N-(1-neopentylpiperidin-4-yl)-1H-indazole-3-carboxamide] | 870 |
| CC(C)NC(=O)c1n[nH]c2ccc(-c3cncc(CN4CCC4)c3)cc12 [Compound 128, 5-(5-(Azetidin-1-ylmethyl)pyridin-3-yl)-N-isopropyl-1H-indazole-3-carboxamide] | 43 |
| O=C(Nc1c(F)cncc1F)c1n[nH]c2ccc(-c3cncc(CN4CCCCC4)c3)cc12 [Compound 79, N-(3,5-Difluoropyridin-4-yl)-5-(5-(piperidin-1-ylmethyl)pyridin-3-yl)-1H-indazole-3-carboxamide] | 1 |
| CN1CCN(Cc2ccc(NC(=O)c3n[nH]c4ccc(-c5cccc(F)c5F)cc34)cc2)CC1 [Compound 1332, 5-(2,3-Difluorophenyl)-N-(4-((4-methylpiperazin-1-yl)methyl)phenyl)-1H-indazole-3-carboxamide] | 14 |
| O=C(NCc1ccccc1)c1n[nH]c2ccc(-c3cncc(CN4CCCCC4)c3)cc12 [Compound 26, N-Benzyl-5-(5-(piperidin-1-ylmethyl)pyridin-3-yl)-1H-indazole-3-carboxamide] | 1 |
| O=C(Nc1cnc(C(F)(F)F)nc1)c1n[nH]c2ccc(-c3cncc(CN4CCCCC4)c3)cc12 [Compound 1116, 5-(5-(Piperidin-1-ylmethyl)pyridin-3-yl)-N-(2-(trifluoromethyl)pyrimidin-5-yl)-1H-indazole-3-carboxamide] | 1 |
| CC(C)NC(=O)c1n[nH]c2cc(F)c(-c3cncc(F)c3)cc12 [Compound 1251, 6-Fluoro-5-(5-fluoropyridin-3-yl)-N-isopropyl-1H-indazole-3-carboxamide] | 45 |
| CC(C)(F)CN1CCC(NC(=O)c2n[nH]c3ccc(-c4cncc(F)c4)cc23)CC1 [Compound 1310, N-(1-(2-Fluoro-2-methylpropyl)piperidin-4-yl)-5-(5-fluoropyridin-3-yl)-1H-indazole-3-carboxamide] | 19 |
| O=C(Nc1cc(C(F)(F)F)ccn1)c1n[nH]c2ccc(-c3cccnc3)cc12 [Compound 41, 5-(Pyridin-3-yl)-N-(4-(trifluoromethyl)pyridin-2-yl)-1H-indazole-3-carboxamide] | 118 |
| CC(F)(F)CN1CCC(NC(=O)c2n[nH]c3ccc(-c4cccnc4)cc23)CC1 [Compound 1300, N-(1-(2,2-Difluoropropyl)piperidin-4-yl)-5-(pyridin-3-yl)-1H-indazole-3-carboxamide] | 6 |
| CC(C)N1CCC(NC(=O)c2n[nH]c3cc(Cl)c(-c4cccnc4)cc23)CC1 [Compound 1304, 6-Chloro-N-(1-isopropylpiperidin-4-yl)-5-(pyridin-3-yl)-1H-indazole-3-carboxamide] | 96 |
| CN1CCC(NC(=O)c2n[nH]c3ccc(-c4ccc(F)cc4F)cc23)CC1 [Compound 18, 5-(2,4-Difluorophenyl)-N-(1-methylpiperidin-4-yl)-1H-indazole-3-carboxamide] | 454 |
| O=C(NC1CCN(CC(F)(F)F)CC1)c1n[nH]c2ccc(-c3cccnc3)cc12 [Compound 1182, 5-(Pyridin-3-yl)-N-(1-(2,2,2-trifluoroethyl)piperidin-4-yl)-1H-indazole-3-carboxamide] | 8 |
| CC(C)N1CCC(NC(=O)c2n[nH]c3ccc(-c4cncc(C(F)F)c4)cc23)CC1 [Compound 1303, 5-(5-(Difluoromethyl)pyridin-3-yl)-N-(1-isopropylpiperidin-4-yl)-1H-indazole-3-carboxamide] | 117 |
| CC(C)(C)NC(=O)c1n[nH]c2ccc(-c3cncc(CN4CCC4)c3)cc12 [Compound 1206, 5-(5-(Azetidin-1-ylmethyl)pyridin-3-yl)-N-(tert-butyl)-1H-indazole-3-carboxamide] | 207 |
| O=C(NC1CCN(CC2CCC2)CC1)c1n[nH]c2ccc(-c3cccnc3)cc12 [Compound 1314, N-(1-(Cyclobutylmethyl)piperidin-4-yl)-5-(pyridin-3-yl)-1H-indazole-3-carboxamide] | 11 |
| O=C(Nc1ccnc(C(F)(F)F)c1)c1n[nH]c2ccc(-c3cncc(N4CCCC4)c3)cc12 [Compound 820, 5-(5-(Pyrrolidin-1-yl)pyridin-3-yl)-N-(2-(trifluoromethyl)pyridin-4-yl)-1H-indazole-3-carboxamide] | 81 |
| CC[C@@H](C)NC(=O)c1n[nH]c2ccc(-c3cncc(Cl)c3)cc12 [Compound 1256, (R)—N-(sec-butyl)-5-(5-chloropyridin-3-yl)-1H-indazole-3-carboxamide] | 122 |

| SMILES | EC50 [nM] |
| --- | --- |
| O=C(NC1Cc2ccccc2C1)c1n[nH]c2ccc(-c3cncc(CN4CCCC4)c3)cc12 [Compound 25, N-(2,3-Dihydro-1H-inden-2-yl)-5-(5-(pyrrolidin-1-ylmethyl)pyridin-3-yl)-1H-indazole-3-carboxamide] | 28 |
| O=C(NCCN1CCOCC1)c1n[nH]c2ccc(-c3cccc(F)c3F)cc12 [Compound 1268, 5-(2,3-Difluorophenyl)-N-(2-morpholinoethyl)-1H-indazole-3-carboxamide] | 23 |
| CC#CCN1CCC(NC(=O)c2n[nH]c3ccc(-c4cccnc4)cc23)CC1 [Compound 369, N-(1-(But-2-yn-1-yl)piperidin-4-yl)-5-(pyridin-3-yl)-1H-indazole-3-carboxamide] | 7 |
| O=C(NC1CCCCC1)c1n[nH]c2ccc(-c3cc(CN4CCCCC4)cc(F)c3F)cc12 [Compound 217, N-Cyclohexyl-5-(2,3-difluoro-5-(piperidin-1-ylmethyl)phenyl)-1H-indazole-3-carboxamide] | 36 |
| CN(C)CCNC(=O)c1n[nH]c2ccc(-c3cccc(F)c3F)cc12 [Compound 1165, 5-(2,3-Difluorophenyl)-N-(2-(dimethylamino)ethyl)-1H-indazole-3-carboxamide] | 77 |
| O=C(Nc1cccc(C(F)(F)F)n1)c1n[nH]c2ccc(-c3cccnc3)cc12 [Compound 42, 5-(Pyridin-3-yl)-N-(6-(trifluoromethyl)pyridin-2-yl)-1H-indazole-3-carboxamide] | 115 |
| CC(C)CN1CCC(NC(=O)c2n[nH]c3ccc(-c4cccc(F)c4F)cc23)CC1 [Compound 93, 5-(2,3-Difluorophenyl)-N-(1-isobutylpiperidin-4-yl)-1H-indazole-3-carboxamide] | 73 |
| O=C(NC1CCOCC1)c1n[nH]c2ccc(-c3cccnc3)cc12 [Compound 2, 5-(Pyridin-3-yl)-N-(tetrahydro-2H-pyran-4-yl)-1H-indazole-3-carboxamide] | 31 |
| O=C(NCC1CC1)c1n[nH]c2ccc(-c3cncc(Cl)c3)cc12 [Compound 1323, 5-(5-Chloropyridin-3-yl)-N-(cyclopropylmethyl)-1H-indazole-3-carboxamide] | 43 |
| O=C(NC1CCN(CC(F)F)CC1)c1n[nH]c2ccc(-c3cncc(Cl)c3)cc12 [Compound 1299, 5-(5-Chloropyridin-3-yl)-N-(1-(2,2-difluoroethyl)piperidin-4-yl)-1H-indazole-3-carboxamide] | 20 |
| O=C(Nc1ccnc(N2CCCC2)c1)c1n[nH]c2ccc(-c3cccnc3)cc12 [Compound 102, 5-(Pyridin-3-yl)-N-(2-(pyrrolidin-1-yl)pyridin-4-yl)-1H-indazole-3-carboxamide] | 4 |
| O=C(Nc1cccc(C(F)(F)F)n1)c1n[nH]c2ccc(-c3cncc(CN4CCCCC4)c3)cc12 [Compound 62, 5-(5-(Piperidin-1-ylmethyl)pyridin-3-yl)-N-(6-(trifluoromethyl)pyridin-2-yl)-1H-indazole-3-carboxamide] | 5 |
| CN(C)Cc1cncc(-c2ccc3[nH]nc(C(=O)NC4(c5ccccc5)CC4)c3c2)c1 [Compound 37, 5-(5-((Dimethylamino)methyl)pyridin-3-yl)-N-(1-phenylcyclopropyl)-1H-indazole-3-carboxamide] | 196 |
| NC1CN(c2cncc(-c3ccc4[nH]nc(C(=O)Nc5cccnc5)c4c3)n2)C1 [Compound 1317, 5-(6-(3-Aminoazetidin-1-yl)pyrazin-2-yl)-N-(pyridin-3-yl)-1H-indazole-3-carboxamide] | 1 |
| CN(C)CCCNC(=O)c1n[nH]c2ccc(-c3cccc(F)c3F)cc12 [Compound 1260, 5-(2,3-Difluorophenyl)-N-(3-(dimethylamino)propyl)-1H-indazole-3-carboxamide] | 135 |
| CCN(CC)Cc1cncc(-c2ccc3[nH]nc(C(=O)NC(C)(C)C)c3c2)c1 [Compound 1252, N-(tert-Butyl)-5-(5-((diethylamino)methyl)pyridin-3-yl)-1H-indazole-3-carboxamide] | 421 |
| CN1CCC(N(C)C(=O)c2n[nH]c3ccc(-c4cccnc4)cc23)CC1 [Compound 1337, N-Methyl-N-(1-methylpiperidin-4-yl)-5-(pyridin-3-yl)-1H-indazole-3-carboxamide] | 2500 |
| CC(C)CN1CCC(NC(=O)c2n[nH]c3ccc(-c4cncc(Cl)c4)cc23)CC1 [Compound 1307, 5-(5-Chloropyridin-3-yl)-N-(1-isobutylpiperidin-4-yl)-1H-indazole-3-carboxamide] | 47 |
| CC(C)(C)NC(=O)c1n[nH]c2ccc(-c3cncc(CN4CCCC4)c3)cc12 [Compound 1200, N-(tert-Butyl)-5-(5-(pyrrolidin-1-ylmethyl)pyridin-3-yl)-1H-indazole-3-carboxamide] | 374 |
| CN1CCC(NC(=O)c2n[nH]c3ccc(-c4cccc(F)c4F)cc23)CC1 [Compound 20, 5-(2,3-Difluorophenyl)-N-(1-methylpiperidin-4-yl)-1H-indazole-3-carboxamide] | 29 |
